Laboratory results published in patent US7273694B2, “Method and apparatus for reducing pathogens in a biological sample” (Safety Art, LLC, priority 2001, dated 2007).
Like-named read-outs stand apart in the source and are kept apart here.

What was measured:
Campylobacter fetus = experiment: Antibiotic sensitivity of bacterial isolate; type: cell-based
[1] = tested on: Brucella abortus Strain 19; type: cell-based; conditions: Strain 19 [vaccine strain]
[2] = tested on: fresh semen of gaur (Bos gaur) bulls
[3] = tested on: cryopreserved bovine (Bos gaurus) sperm
[4] = tested on: fresh semen of domestic bulls (Bos taurus)

Molecule | sensitivity of C. fetus to antibiotic (Campylobacter fetus; laboratory isolate [4914]) | sensitivity of B. abortus to antibiotic [1] | sensitivity of C. fetus to antibiotic (Campylobacter fetus) | detrimental effects on sperm (motility, viability, acrosomal integrity) [2] | detrimental effects of increasing the concentration [3] | detrimental effects on sperm (motility, viability, acrosomal integrity) [4]
CCC[C@@H]1C[C@@H](C(=O)N[C@@H]([C@H]2O[C@H](SC)[C@H](O)[C@@H](O)[C@H]2O)[C@@H](C)O)N(C)C1 [lincomycin] | sensitive | resistant |  |  |  | 
CN[C@@H]1[C@H](O)[C@H](NC)[C@H]2O[C@@]3(O)C(=O)C[C@@H](C)O[C@H]3O[C@@H]2[C@H]1O [spectinomycin] | intermediate | sensitive |  |  |  | 
CC[C@H]1OC(=O)C[C@@H](O)[C@H](C)[C@@H](O[C@@H]2O[C@H](C)[C@@H](O[C@H]3C[C@@](C)(O)[C@@H](O)[C@H](C)O3)[C@H](N(C)C)[C@H]2O)[C@@H](CC=O)C[C@@H](C)C(=O)/C=C/C(C)=C/[C@@H]1CO[C@@H]1O[C@H](C)[C@@H](O)[C@@H](OC)[C@H]1OC [tylosin] | intermediate | intermediate |  |  |  | 
gentamicin |  | sensitive | sensitive |  |  | 
trypsin |  |  |  | no detrimental affects | no detrimental effects | no detrimental affects
